Assay results taken from patent publication US20110097773A1, “METHOD FOR PRODUCING BUTANOL USING EXTRACTIVE FERMENTATION” (BUTAMAX(TM) ADVANCED BIOFUELS LLC, priority 2009, published 2011).

How the values were obtained:
S. cerevisiae BY4741 = experiment: Biocompatibility of extractants: glucose utilization rate of the microorganism during extraction; type: cell-based, Saccharomyces cerevisiae; conditions: percentage of average value for oleyl alcohol (Comparative Example A); 25 mL extractant/75 mL culture broth, 40 g/L initial isobutanol, 30° C., 8 hours
Method: (§1) Each extractant was contacted with a fermentation medium and isobutanol as described below to determine the partition coefficient of the extractant. The biocompatibility of the extractant was also assessed by determining the glucose utilization rate of the microorganism during the extraction.
The following experimental procedure was used. In these experiments the amount of ethanol depended on the amount of glucose consumption but typical ethanol values were in the range of 10-15 g/L. The presence of ethanol in these concentrations is not expected to impact glucose consumption and the partitioning of butanol into the extractant. Seed shake flasks containing 250 mL of yeast extract/peptone/dextrose (YPD) medium were inoculated with 150 μL of S. cerevisiae BY4741 inoculum and incubated for about 14 hours at 30° C. with shaking at 250 rpm in a table top shaker (Innova 4230, New Brunswick scientific, Edison, N.J.). When the OD600 reached about 0.4, the glucose concentration in the culture broth was analyzed rapidly by a Select Biochemistry Analyzer and extra glucose was added to reach a final concentration of about 25 g/L. The culture broth was divided into 125 mL flasks, each containing 75 mL of the culture broth. After one hour of incubation at 30° C. with shaking at 200 rpm, 3.75 mL of isobutanol was added to each flask in order to bring the initial isobutanol concentration in the aqueous phase to 40 g/L. The incubation of the biphasic fermentation medium comprising an aqueous phase and a butanol-containing organic phase was continued at 30° C. with shaking at 100 rpm for 8 hours. The aqueous and organic phases in each flask were separated by decantation. The aqueous phase was centrifuged (2 minutes on 13,000 rpm with an Eppendorf centrifuge model 5415R) to remove cells and the supernatant analyzed for glucose, ethanol, and isobutanol by HPLC.
Glucose utilization rates were calculated by noting the difference in glucose concentrations between samples and the time between samples and computing a rate accordingly, for example ([glucose]t2−[glucose]t1)/(t2−t1) where t1 refers to a time earlier than t2 and [glucose] means the concentration of glucose.
Comparative Example A was repeated three times and the results averaged. For the extractants of Comparative Examples A-G, the partition coefficient for isobutanol and the glucose utilization rate are expressed below in Table 3 as percentages of the average values determined for oleyl alcohol (Comparative Example A). A value greater than 100% indicates a result which is numerically larger than that for oleyl alcohol. A value less than 100% indicates a result which is numerically smaller than that for oleyl alcohol. A value of 100% indicates a result which is the same as that for oleyl alcohol. As disclosed in US Patent Application Publication No. 2009-0305370 A1, oleyl alcohol performed well in single solvent extractive fermentations for isobutanol production.
(§2) The extractants listed in Table 2 were evaluated using the procedure described above, but with the following modifications. After the culture broth was divided into 125 mL flasks, each containing 75 mL of the culture broth, oleyl alcohol was added as the first solvent to each flask in the amount shown in Table 2.
For the extractants of Examples 1-15, the partition coefficients for isobutanol and the glucose utilization rate are expressed below in Table 3, together with the results for Comparative examples A-G, as percentages of the average values determined for oleyl alcohol (Comparative Example A). A value greater than 100% indicates a result which is numerically larger than that for oleyl alcohol. A value less than 100% indicates a result which is numerically smaller than that for oleyl alcohol. A value of 100% indicates a result which is the same as that for oleyl alcohol.

[1] = Partition coefficient for isobutanol between extractant (organic phase) and fermentation medium (aqueous phase); type: physicochemical; conditions: isobutanol partition coefficient (organic/aqueous) as percentage of average value for oleyl alcohol (Comparative Example A); 40 g/L initial isobutanol, 30° C.
Method: as §1
The following experimental procedure was used. […] When the OD600 reached about 0.4, the glucose concentration in the culture broth was analyzed rapidly by a Select Biochemistry Analyzer and extra glucose was added to reach a final concentration of about 25 g/L. The culture broth was divided into 125 mL flasks, each containing 75 mL of the culture broth. After one hour of incubation at 30° C. with shaking at 200 rpm, 3.75 mL of isobutanol was added to each flask in order to bring the initial isobutanol concentration in the aqueous phase to 40 g/L. The incubation of the biphasic fermentation medium comprising an aqueous phase and a butanol-containing organic phase was continued at 30° C. with shaking at 100 rpm for 8 hours. The aqueous and organic phases in each flask were separated by decantation.
Partition coefficients for the isobutanol distribution between the organic and aqueous phases were calculated from the known amount of isobutanol added to the flask and the isobutanol concentration data measured for the aqueous phase. The concentration of isobutanol in the extractant phase was determined by the mass balance. The partition coefficient was determined as the ratio of the isobutanol concentrations in the organic and the aqueous phases, i.e., Kp=[Isobutanol]Organic phase/[isobutanol]Aqueous phase.
(§3) A value greater than 100% indicates a result which is numerically larger than that for oleyl alcohol. A value less than 100% indicates a result which is numerically smaller than that for oleyl alcohol. A value of 100% indicates a result which is the same as that for oleyl alcohol.
as §2, §3

Row | Compound | % KP [1] | % Glucose Utilization Rate (S. cerevisiae BY4741)
1 | CCCCCCCC/C=C\CCCCCCCCO [Comparative Ex. A, Oleyl Alcohol] | 100% | 100%
2 | CCCCCCCCCO [Comparative Ex. B, 1-Nonanol] |  | 0%
3 | CCCCCCCCCCCO [Comparative Ex. C, 1-Undecanol] | 127.0% | 0%
4 | CCCCCCCCCCCCO [Comparative Ex. G, 1-Dodecanol] |  | 84%

More lines, main results first:

Row | % KP [1] | Compound | % Glucose Utilization Rate (S. cerevisiae BY4741)
5 | 139.0% | CCCCCCCCCC(C)O (stereo not drawn) [Comparative Ex. D, 2-Undecanol] | 0%
6 | 132.6% | CCCCCCCCC=O [Comparative Ex. E, 1-Nonanal] | 0%
7 | 139.0% | CCCCCCCCCCO [Comparative Ex. F, 1-Decanol] | 0%
